# Measurements: US9326994B2, “Amine functional polyamides” (GENZYME CORPORATION, priority 2013, dated 2016)
# Tests used:
# Type in all cases: cell-based
# [1] = tested on: normal human dermal fibroblasts (NHDF)
# Procedure: (§1) Mammalian cell cytotoxicity assays were performed using two primary human cell lines: renal proximal tubule epithelial cells (RPTEC—Cambrex CC-2553) and normal human dermal fibroblasts (NHDF—Cambrex CC-2509). Cells were plated at 3,000 cells/well (RPTEC) or 5,000 cells/well (NHDF) in 96-well plates and incubated overnight at 37° C. The compounds were added to the wells, and the cells were incubated for 4 days. Alomar Blue was added to one set of plates and incubated for 4 hours. The plates were read when the compound was added (time zero) and at the end of the study. Fluorescence was read using 530 nm (excitation) and 590 nm (emission) according to the manufacturer's instructions.
# [2] = tested on: renal proximal tubule epithelial cells (RPTEC); experiment: in vitro
# Procedure: as §1, with “Cells” for “Mammalian cell cytotoxicity assays were performed using two primary human cell lines: renal proximal tubule epithelial cells (RPTEC—Cambrex CC-2553) and normal human dermal fibroblasts (NHDF—Cambrex CC-2509). Cells”
# erythrocytes = experiment: Erythrocyte lysis assay; details: overnight 37° C., hematocrit 1%
# Procedure: After incubation, the plates were centrifuged and the supernatant transferred to flat-bottomed 96-well plates. The supernatant was assayed using the QuantiChrom Hemoglobin kit according to the manufacturer's instructions. The IC50 values were calculated using GraphPad Prism.
# [3] = tested on: Staphylococcus aureus subsp. aureus; experiment: Minimum inhibitory concentration assay; details: Mueller-Hinton broth, 18-24 hours at 35° C.; unit assumed
# Procedure: (§2) The minimum inhibitory concentration (MIC) assay determines the lowest concentration of an antimicrobial agent required to inhibit the growth of test organisms after incubation. MIC assays were performed against an internal standard panel of organisms to identify compounds with antimicrobial activity. The MIC assay was subsequently repeated against other specialized microbial panels. Assays were conducted against the following clinically relevant microorganisms: Staphylococcus aureus subsp. aureus, Staphylococcus epidermis, Escherichia coli, Pseudomonas aeruginosa, Haemophilius influenzae. The compounds were tested for bacteriocidal activity, time course of killing, toxicity against tissue culture cells grown in vitro, and in some cases were tested for antimicrobial activity in vivo. The MIC assays were performed according to the Performance Standards for Antimicrobial Susceptibility Testing, 2006, vol. M100-S15, Fifteenth Informational Supplement, NCCLS, 940 West Valley Road, Suite 1400, Wayne, Pa. 19087. […] The solution was then filter-sterilized through a 0.22 μm filter. Two-fold serial dilutions of polymer were prepared in Mueller-Hinton broth with cations aliquotted into 96-well microtiter plates. The plates were then inoculated with 5×10^5 cells/mL of target organism and incubated 18-24 hours at 35° C. […] The MIC value is the lowest concentration of compound that inhibits growth; accordingly, a higher MIC value indicates less potency where a lower MIC valued indicated more potency.
# Escherichia coli = experiment: Minimum inhibitory concentration assay; details: Mueller-Hinton broth, 18-24 hours at 35° C.; unit assumed
# Procedure: as §2
# Staphylococcus epidermis = experiment: Minimum inhibitory concentration assay; details: Mueller-Hinton broth, 18-24 hours at 35° C.; unit assumed
# Procedure: as §2
# Haemophilus influenzae = experiment: Minimum inhibitory concentration assay; details: Mueller-Hinton broth, 18-24 hours at 35° C.; unit assumed
# Procedure: as §2
# Pseudomonas aeruginosa = experiment: Minimum inhibitory concentration assay; details: Mueller-Hinton broth, 18-24 hours at 35° C.; unit assumed
# Procedure: as §2
# [4] = tested on: human lung epithelial Carcinoma cell line (A 549); experiment: Cytotoxicity assay, human lung epithelial cells; parameters: unit not given here; details: A 549, 96 hours, CellTiter-Glo
# in vitro = details: human
# Procedure: as §1, with “Cells” for “Mammalian cell cytotoxicity assays were performed using two primary human cell lines: renal proximal tubule epithelial cells (RPTEC—Cambrex CC-2553) and normal human dermal fibroblasts (NHDF—Cambrex CC-2509). Cells”
molecule,measurement,setting,value
"Poly(4,4′-trimethylenedipiperidinebispropionic acid-2-dydroxy 1,3-diaminopropane)",Cytotoxicity (Human Dermal Fibroblast IC50),[1],50
"Poly(4,4-trimethylene dipiperidinebispropanoic acid-diaminopropane)",Cytotoxicity (Human Dermal Fibroblast IC50),[1],141.3
"Poly(piperazinebispropanoic acid-1,4-diaminobutane)",Cytotoxicity (Human Dermal Fibroblast IC50),[1],1905
"Poly(4,4′-dipiperidinebispropionic acid-1,4-diaminobutane)",Cytotoxicity (Human Dermal Fibroblast IC50),[1],5
"Poly(4,4′-trimethylene dipiperidinebispropanoic acid-1,4-benzyldiamine)",Cytotoxicity (Human Dermal Fibroblast IC50),[1],4.703
"Poly(piperazinebispropanoic acid-3,3′ diamino-N-methyl-dipropylamine)",Cytotoxicity (Kidney Epithelial IC50),[2],5.3 µg/mL
"4,4′-trimethylene dipiperidinebispropanoic acid-diaminopropane pentamer",Erythrocyte Lysis (Hemolysis IC50),erythrocytes,>3200
same,Staphylococcus aureus subsp. aureus (MIC),[3],16 µg/mL
same,Escherichia coli (MIC),Escherichia coli,16 µg/mL
same,Staphylococcus epidermis (MIC),Staphylococcus epidermis,1 µg/mL
same,Haemophilus influenzae (MIC),Haemophilus influenzae,64 µg/mL
same,Pseudomonas aeruginosa (MIC),Pseudomonas aeruginosa,> 128 µg/mL
same,Lung Epi IC50,[4],259.0
"Poly(4,4-trimethylene dipiperidine bispropanoic acid-diaminoethane)",Cytotoxicity (Human Dermal Fibroblast IC50),[1],178
"Methyl ester terminated Poly(4,4-trimethylene dipiperidinebispropanoic acid-diaminopropane)",Cytotoxicity (Kidney Epithelial IC50),[2],1.5 µg/mL
"Poly(4,4′-dipiperidinebispropanoic acid-3,3′-diamino-N-methyl-dipropylamine) [Poly(4,4′-dipiperidinebispropanoic acid-3,3′-diamino-N-methy] [listing 1 of 2 here]",Cytotoxicity (Human Dermal Fibroblast IC50),[1],3
"Poly(piperazinebispropanoic acid-N(3-aminopropyl)1,3-propanediamine)",Cytotoxicity (Human Dermal Fibroblast IC50),[1],15.3
"Poly(4,4′-dipiperidinebispropionic acid-1,3-diaminopropane)",Cytotoxicity (Human Dermal Fibroblast IC50),[1],7
"NCCCNC(=O)CCN1CCC(CCCC2CCN(CCC(=O)NCCCN)CC2)CC1 [4,4-trimethylene dipiperidinebispropanoic acid-diaminopropane]",IC50,"erythrocytes; Erythrocyte, read-out: Erythrocyte Lysis (Hemolysis IC50)",> 3200 µg/mL
same,Staphylococcus aureus subsp. aureus (MIC),[3],> 128 µg/mL
same,Escherichia coli (MIC),Escherichia coli,> 128 µg/mL
same,Staphylococcus epidermis (MIC),Staphylococcus epidermis,> 128 µg/mL
same,Haemophilus influenzae (MIC),Haemophilus influenzae,> 128 µg/mL
same,Pseudomonas aeruginosa (MIC),Pseudomonas aeruginosa,> 128 µg/mL
same,CC50 at 4 days,in vitro,> 512 µg/mL
same,IC50 at 4 days,"in vitro; RPTEC, 4 days incubation, Alomar Blue, read-out: Cytotoxicity (Kidney Epithelial IC50)",> 512 µg/mL
"Poly(piperazinebispropanoic acid-2,2-diaminodiethylamine)",Cytotoxicity (Human Dermal Fibroblast IC50),[1],1111.6
"Poly(piperazinebispropanoic acid-N-methyl-2,2-diaminodiethylamine)",Cytotoxicity (Human Dermal Fibroblast IC50),[1],3068.6
"Poly(4,4-trimethylene dipiperidinebispropanoic acid 4,4′-dipiperidine)",Cytotoxicity (Human Dermal Fibroblast IC50),[1],2.0
"Poly (4,4′-trimethylene dipiperidine bispropanoic acid--N,N′-dimethyl-1,3-diaminopropane)",Cytotoxicity (Human Dermal Fibroblast IC50),[1],5
"Poly(4,4-trimethylene dipiperidinebispropanoic acid-N(2-aminoethyl)-diaminoethane)",Cytotoxicity (Human Dermal Fibroblast IC50),[1],1.7
"Poly(4,4′-dipiperidinebispropanoic acid-3,3′-diamino-N-methyl-dipropylamine) [Poly(4,4′-dipiperidinebispropanoic acid-3,3′-diamino-N-methy] [listing 2 of 2 here]",Cytotoxicity (Human Dermal Fibroblast IC50),[1],2
"4-guanidinobenzene terminated Poly(4,4-trimethylene dipiperidinebispropanoic acid-diaminopropane)",Cytotoxicity (Kidney Epithelial IC50),[2],6 µg/mL
"Poly(4,4′-trimethylenedipiperidine-1,3-diamninopropane-N,N′-di-3-propionic acid)",Cytotoxicity (Human Dermal Fibroblast IC50),[1],2
same,Cytotoxicity (Kidney Epithelial IC50),[2],2 µg/mL
"Carboxy terminated Poly(4,4-trimethylene dipiperidinebispropanoic acid-diaminopropane)",Cytotoxicity (Kidney Epithelial IC50),[2],43 µg/mL
"4,4′-trimethylene dipiperidinebispropanoic acid-diaminopropane heptamer",Erythrocyte Lysis (Hemolysis IC50),erythrocytes,>3200
same,Staphylococcus aureus subsp. aureus (MIC),[3],2 µg/mL
same,Escherichia coli (MIC),Escherichia coli,8 µg/mL
same,Staphylococcus epidermis (MIC),Staphylococcus epidermis,1 µg/mL
same,Haemophilus influenzae (MIC),Haemophilus influenzae,128 µg/mL
same,Pseudomonas aeruginosa (MIC),Pseudomonas aeruginosa,> 128 µg/mL
same,Cytotoxicity (Kidney Epithelial IC50),[2],190 µg/mL
same,Lung Epi IC50,[4],418.0
"Poly (4,4′-trimethylene dipiperidine bispropanoic acid-4,4′-trimethylene dipiperidine)",Cytotoxicity (Human Dermal Fibroblast IC50),[1],3
"Poly(4,4′-dipiperidinebispropanoic acid-3,3′-diamino-dipropylamine) [Poly(4,4′-dipiperidinebispropanoic acid-3,3′-diamino-dipropy]",Cytotoxicity (Human Dermal Fibroblast IC50),[1],2
"Poly(4,4′-trimethylenedipiperidinebispropionic acid-bis(4-aminobutyl)ether)",Cytotoxicity (Human Dermal Fibroblast IC50),[1],3
